In US7101878B1 (Agouron Pharmaceuticals, Inc., priority 1998, dated 2006):

Each compound was assayed against T1, mouse GnRH receptor (Mus musculus, UniProt Q01776) (assay: Radioligand binding, 125I-GnRH-A, 293 cells expressing mouse GnRH receptors). Details: 10 uM; read-out: % Inhib. @ 10 uM mGnRH.
T1 construct: expressed in transfected cells; host or cells: 293 cells
T1 sequence (Q01776 1-327): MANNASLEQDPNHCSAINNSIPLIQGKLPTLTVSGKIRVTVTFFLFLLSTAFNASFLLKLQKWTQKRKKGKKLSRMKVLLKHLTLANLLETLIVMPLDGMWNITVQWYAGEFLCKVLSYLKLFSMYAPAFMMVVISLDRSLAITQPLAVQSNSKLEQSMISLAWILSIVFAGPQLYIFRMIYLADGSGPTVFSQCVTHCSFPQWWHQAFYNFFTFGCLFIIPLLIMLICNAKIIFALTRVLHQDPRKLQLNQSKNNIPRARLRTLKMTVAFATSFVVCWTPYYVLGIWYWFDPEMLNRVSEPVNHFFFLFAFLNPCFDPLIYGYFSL
How it was run: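 Bound label captured on 0.1% polyethyleneimine-treated GF/C filters, washed three times with PBS, counted. IC50 derived; identical set-up for every species.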

SMILES	inhibition at 10 µM
Cc1cc2c(cc1Cc1ccc(C(=O)N(Cc3ccco3)C3CC(=O)N(C)C3=O)o1)C(C)(C)CCC2(C)C (centres unmarked) [drawing 1504]	69%
Cc1cc2c(cc1Cc1ccc(C(=O)NC3CCS(=O)(=O)C3)o1)C(C)(C)CCC2(C)C (centres unmarked) [drawing 1508]	90%
Cc1cc2c(cc1Cc1ccc(C(=O)N3CCC(O)CC3)o1)C(C)(C)CCC2(C)C [drawing 1510]	77%
Cc1cc2c(cc1Cc1ccc(C(=O)N3CCC4(CC3)C(=O)NCN4c3ccccc3)o1)C(C)(C)CCC2(C)C [drawing 1511]	72%
Cc1cc2c(cc1Cc1ccc(C(=O)N3CCC(O)(c4ccc(Br)cc4)CC3)o1)C(C)(C)CCC2(C)C [drawing 1512]	49%
COc1cccc(N2CCN(C(=O)c3ccc(Cc4cc5c(cc4C)C(C)(C)CCC5(C)C)o3)CC2C)c1 (centres unmarked) [drawing 1513]	76%
Cc1cc2c(cc1Cc1ccc(C(=O)N3CCc4ccccc4C3Cc3ccccc3)o1)C(C)(C)CCC2(C)C (centres unmarked) [drawing 1515]	46%
Cc1cccc(N2CCN(C(=O)c3ccc(Cc4cc5c(cc4C)C(C)(C)CCC5(C)C)o3)CC2C)c1 (centres unmarked) [drawing 1520]	73%
Cc1cc2c(cc1Cc1ccc(C(=O)NCCc3ccc(Cl)cc3)o1)C(C)(C)CCC2(C)C [drawing 1521]	81%
Cc1cc2c(cc1Cc1ccc(C(=O)NC3CCCCC3O)o1)C(C)(C)CCC2(C)C (centres unmarked) [drawing 1522]	97%
Cc1cc2c(cc1Cc1ccc(C(=O)N3CCCC(C)(C)C3)o1)C(C)(C)CCC2(C)C [drawing 1523]	98%
CCN(C(=O)c1ccc(Cc2cc3c(cc2C)C(C)(C)CCC3(C)C)o1)C1CCCCC1 [drawing 1524]	100%
Cc1cc2c(cc1Cc1ccc(C(=O)NCCc3c[nH]c4ccc(O)cc34)o1)C(C)(C)CCC2(C)C [drawing 1526]	84%
Cc1cc2c(cc1Cc1ccc(C(=O)NCCc3ccc(Oc4ccccc4)cc3)o1)C(C)(C)CCC2(C)C [drawing 1529]	57%
CCOC(=O)N1CCN(C(=O)c2ccc(Cc3cc4c(cc3C)C(C)(C)CCC4(C)C)o2)CC1 [drawing 1530]	65%
Cc1cc2c(cc1Cc1ccc(C(=O)N3CCN(Cc4ccc(C(C)(C)C)cc4)CC3)o1)C(C)(C)CCC2(C)C [drawing 1534]	65%
Cc1cc2c(cc1Cc1ccc(C(=O)N(Cc3cccnc3)Cc3ccco3)o1)C(C)(C)CCC2(C)C [drawing 1535]	89%
Cc1cc2c(cc1Cc1ccc(C(=O)N(CCC#N)CCC#N)o1)C(C)(C)CCC2(C)C [drawing 1536]	77%
Cc1cc2c(cc1Cc1ccc(C(=O)N(Cc3cccnc3)Cc3cccnc3)o1)C(C)(C)CCC2(C)C [drawing 1538]	101%

The next lines start with the values.

inhibition at 10 µM	SMILES
103%	COC(CNC(=O)c1ccc(Cc2cc3c(cc2C)C(C)(C)CCC3(C)C)o1)OC [drawing 1505]
94%	CCN(CC)CCNC(=O)c1ccc(Cc2cc3c(cc2C)C(C)(C)CCC3(C)C)o1 [drawing 1506]
98%	Cc1cc2c(cc1Cc1ccc(C(=O)NCC(C)(C)CN(C)C)o1)C(C)(C)CCC2(C)C [drawing 1507]
92%	Cc1cc2c(cc1Cc1ccc(C(=O)N(C)CCCN(C)C)o1)C(C)(C)CCC2(C)C [drawing 1516]
106%	Cc1cc2c(cc1Cc1ccc(C(=O)NCCCCCCN(C)C)o1)C(C)(C)CCC2(C)C [drawing 1519]
53%	Cc1cc2c(cc1Cc1ccc(C(=O)NCCO)o1)C(C)(C)CCC2(C)C [drawing 1527]
83%	Cc1cc2c(cc1Cc1ccc(C(=O)N(C)CCC#N)o1)C(C)(C)CCC2(C)C [drawing 1531]
78%	COc1ccc(CCNC(=O)c2ccc(Cc3cc4c(cc3C)C(C)(C)CCC4(C)C)o2)cc1Br [drawing 1532]
99%	CCC(O)CNC(=O)c1ccc(Cc2cc3c(cc2C)C(C)(C)CCC3(C)C)o1 (centres unmarked) [drawing 1537]
23%	CNC(=O)c1ccc(Cc2cc3c(cc2C)C(C)(C)CCC3(C)C)o1 [drawing 1539]
